ChEMBL document CHEMBL1150113, “Ulongamides A-F, new beta-amino acid-containing cyclodepsipeptides from Palauan collections of the marine cyanobacterium Lyngbya sp” (J Nat Prod, 2002)
pIC50: −log10 of the molar value. Calls of active or inactive are those of the source. No cut-off for these calls is given here.

How the values were obtained:
Assay type in all cases: functional, cell-based
LoVo [1] = experiment: Cytotoxicity against human LoVo cells at < 10 uM
KB [2] = experiment: Cytotoxicity against human KB cells at < 10 uM
LoVo [3] = experiment: Cytotoxicity against human LoVo cells
KB [4] = experiment: Cytotoxicity against human KB cells

| SMILES | Activity (LoVo [1]) | Activity (KB [2]) | pIC50 (LoVo [3]) | pIC50 (KB [4]) |
| --- | --- | --- | --- | --- |
| CCC[C@H]1NC(=O)c2csc(n2)[C@H](C)NC(=O)[C@H](C(C)C)N(C)C(=O)[C@H](C(C)C)NC(=O)[C@H]([C@@H](C)CC)OC(=O)[C@H]1C | inactive | inactive |  |  |
| CCC[C@H]1NC(=O)c2csc(n2)[C@H](C)NC(=O)[C@H](C(C)C)N(C)C(=O)[C@H](Cc2ccccc2)N(C)C(=O)[C@H](C)OC(=O)[C@@H]1C [ULONGAMIDE A] |  |  | 5.30 | 6.00 |
| CCC[C@H]1NC(=O)c2csc(n2)[C@H](C)NC(=O)[C@H](C(C)C)N(C)C(=O)[C@H](Cc2ccc(O)cc2)N(C)C(=O)[C@H](C)OC(=O)[C@@H]1C [ULONGAMIDE B] |  |  | 5.30 | 6.00 |
| CCC[C@H]1NC(=O)c2csc(n2)[C@H](C)NC(=O)[C@H](Cc2ccccc2)N(C)C(=O)[C@H](Cc2ccc(O)cc2)N(C)C(=O)[C@H](C)OC(=O)[C@@H]1C [ULONGAMIDE C] |  |  | 5.30 | 6.00 |
| CCC[C@H]1NC(=O)c2csc(n2)[C@H](C)NC(=O)[C@H](C(C)C)N(C)C(=O)[C@H](Cc2ccc(O)cc2)N(C)C(=O)[C@H](C(C)C)OC(=O)[C@H]1C [ULONGAMIDE D] |  |  | 5.30 | 6.00 |
| CCC[C@H]1NC(=O)c2csc(n2)[C@H](C)NC(=O)[C@H](C(C)C)N(C)C(=O)[C@H](Cc2ccc(O)cc2)N(C)C(=O)[C@H]([C@H](C)CC)OC(=O)[C@H]1C [ULONGAMIDE E] |  |  | 5.30 | 6.00 |
